Measurements taken from PMC6099735, “Piplartine Analogues and Cytotoxic Evaluation against Glioblastoma” (Molecules : A Journal of Synthetic Chemistry and Natural …, 2018).
Values after ≈ are worked out from the molar mass of the structure shown.

Assays:
U87MG cells [1] = assay: MTT cell viability assay, cytotoxic activity against proliferation of U87MG cells; type: cell-based, human; settings: for IC50: Homo sapiens, U-87 MG, MTT assay, 48 h exposure, 0.78-50 μg/mL, mean ± SEM of four experiments
Description: To evaluate the cytotoxic potential of compounds 2–19 against human U87MG, glioblastoma cells were used with several concentrations (0 to 50 μg/mL). After 48 h of incubation, cell viability rates were established by MTT and LDH analysis. IC50 values of each analogue were determined due to observed cell viability results after MTT assay. All tested analogues led to inhibition of cellular proliferation rates as compared to untreated cells in a clear concentration and compound type dependent manners, as illustrated in Table 1 and Figure 2.
Human glioblastoma (GBM) cell line U87MG (American Type Culture Collection; Rockville, MD, USA) within passage number 15–20 were grown in an incubator at 37 °C in a humidified atmosphere of 5% CO2. They were grown in Eagle’s Minimal Essential Medium from Sigma-Aldrich (Saint Louis, MO, USA), supplemented with 10% fetal bovine serum (FBS) and 100 μg/mL of each of the following antibiotics: penicillin and streptomycin [66].
To examine the effects of compounds on cell viability, an MTT assay was performed. U87MG cells were seeded at 1 × 10^4 cells per well in 96-well plate and allowed to attach for 24 h. Then the cells were exposed to different concentrations of 2–19 (0.78, 1.56, 3.125, 6.25, 12.5, 25 and 50 μg/mL) for 48 h. All the compounds were dissolved in dimethyl sulfoxide (DMSO), and diluted in serum-free culture medium. After the incubation, a 3-(4,5-dimethylthiazol-2-yl)-2,5-diphenyltetrazolium bromide (MTT) solution was applied to cell cultures according to the manufacturer’s instructions (Cayman Chemical Company®, Ann Arbor, MI, USA). After 3 h of incubation, MTT-formazan crystals were dissolved in DMSO and absorbance was measured at 570 nm on a plate reader and compared with control, untreated cells. The half-maximal inhibitory concentration values (IC50) were determined by MTT assay performed in four replicates.

[2] = test system: BF16F10-Nex2 (murine melanoma); parameters: method as in PMID 25920262; settings: MTT test; cited from earlier work
[3] = test system: HeLa (human cervical carcinoma); parameters: method as in PMID 25920262; settings: MTT test; cited from earlier work
[4] = test system: HL-60 (human leukemic cell); parameters: method as in PMID 25920262; settings: MTT test; cited from earlier work
U87MG cells [5] = assay: Apoptosis detection by Hoechst 33,258 staining; type: cell-based, human; settings: 48 h at IC50 concentration, compared with control group
Description: Cell apoptosis induced by compound 10 was examined by Hoechst 33,258 staining and observed under a fluorescence microscope at 400× magnification.
The control and formulation treated cells were incubated for 48 h and were cultured in six-well cell culture plates for 48 h. after incubation, the medium was removed and the cells were fixed with 4% paraformaldehyde in phosphate buffered saline at 4 °C for 30 min. Following the washing cells three times with phosphate-buffered saline (PBS). The cells were then stained with 1 μL Hoechst 33,258 (5 μg/mL; Sigma-Aldrich, Saint Louis, MO, USA) and incubated at room temperature in the dark for 5 min. Changes in nuclear morphology were visualized under a fluorescent microscope (excitation, 350 nm; emission, 460 nm; Leica® DM IL LED, Wetzlar, Germany).

U87MG cells [6] = assay: Total antioxidant capacity (TAC) assay; type: cell-based, human; settings: 48 h, concentrations 0.78 and 50 μg/mL, compared with controls
Description: (§1) The total antioxidant capacity (TAC) and the total oxidant status (TOS) levels were evaluated in samples from treated and untreated cultures using colorimetric measurement methods.
(§2) The commercially available kits were purchased from (Rel Assay Diagnostics®, Gaziantep, Turkey) to estimate the level of TAS and TOS. As a summary, the cells were seeded at 10^6 cells/well in 48-well plates, treated with compound 10 as described above. After 48 h incubation, plasma samples of treated and untreated cultures were transferred to a new plate, mixed with reaction solution and incubate for 10 min at room temperature. After that, the absorbance was read spectrophotometrically and the level of TAS and TOS were calculated according to the given equation.

U87MG cells [7] = assay: Total oxidant status (TOS) assay; type: cell-based, human; settings: 48 h, all the concentrations
Description: as §1, §2

U87MG cells [8] = assay: qRT-PCR gene expression, custom plate with 15 cancer pathway genes; type: cell-based, human; settings: IC50 concentration, 48 h
Description: To find out the differences in the level of gene expression in U87MG cells exposed using compound 10, a custom plate with 15 different genes involved in cancer related pathways was used via qRT-PCR studies.
Total RNA was isolated from cultured cells using PureLink® RNA Mini Kit (Invitrogen, Carlsbad, MA, USA) following the instructions described by the manufacturer. For quantitative reverse-transcription polymerase chain reaction (qRT-PCR), RNA was reverse-transcribed to cDNA by using a High-Capacity cDNA Reverse Transcription kit (Applied Biosystems, Foster City, CA, USA) according to the manufacturer’s protocol. Real-time PCR analyses were performed using the resulting total cDNA on a TaqMan® custom plate (Applied Biosystems) designed with 15 different genes (EGFR, AKT1, AKT2, NFκB1, NFκB1A, NFκB2, PTEN, KRAS, PIK3CA, PIK3R1, TP53, RAF1, BRAF, DVL1, FOS). Results were normalized to the expression of 18SRNA. qRT-PCR and data collection were performed on 7500 Fast Real-Time PCR (Applied Biosystems). Data analyses were performed using the The Applied Biosystems 7500 Fast System SDS software (Foster City, CA, USA).

[9] = test system: peripheral human whole blood (PHWB) cells; assay: Biosafety: MTT cytotoxicity on cultured blood cells; type: cell-based; settings: 0.78 to 50 μg/mL
Description: (§3) To evaluate biosafety of 10, its cytotoxic and genotoxic potential were investigated on cultured peripheral human whole blood (PHWB) cells. Firstly, the cytotoxicity testing was performed by MTT and LDH assays. The human blood cells exposed to 0.78 to 50 μg/mL of 10. […] Afterwards, genotoxic potential was assessed by SCE testing and determination of 8-OH-dG.
(§4) Human peripheral blood cells were cultured in order to evaluate the biosafety of 10. To assess the cytotoxicity and genotoxicity potential of 10, MTT, LDH, Sister chromatid exchange (SCE) and 8-hydroxy-2′-deoxyguanosine assays were assessed on cultured blood cells.

[10] = test system: peripheral human whole blood (PHWB) cells; assay: Biosafety: LDH cytotoxicity on cultured blood cells; type: cell-based; settings: 0.78 to 50 μg/mL
Description: as §3, §4

[11] = test system: peripheral human whole blood (PHWB) cells; assay: Sister chromatid exchange (SCE) testing; type: cell-based; settings: 72 h, vs control group
Description: as §3
Peripheral blood samples were incubated with 10 (50 μg/mL) at 37 °C for 72 h in culture medium (PB-MAX Karyotyping Medium, Gibco®, Baecelona, Spain) with 5.0 mg/mL of phytohemagglutinin (Sigma Aldrich, Steinheim, Germany). 5-Bromodeoxyuridine (BrdU) (10 μg/mL) was added to cell cultures at initiation. At 1.5 h before harvesting, colcemid (0.5 μg/mL) were added to cells. Then cells were treated with a hypotonic solution (0.075 M KCl), followed by three times fixation step in methanol/acetic acid (3:1, v/v). Cell suspensions were dropped on slides and air-dried. Three days later, the slides were stained according to the fluorescence plus Giemsa (FPG) procedure. Slides were observed under a fluorescence microscope and scores were calculated as SCEs per cell.

[12] = significant = >0.5 fold change vs untreated

melting point	Compound	IC50 (U87MG cells [1])	further results
	COc1cc(/C=C/C(=O)NCc2ccccc2)cc(OC)c1OC [Compound 15, (E)-N-Benzyl-3-(3,4,5-trimethoxyphenyl)acrylamide]	33.1 ± 0.41 µg/mL (≈ 101 µM)	
	COc1cc(/C=C/C(=O)OC(C)C)cc(OC)c1OC [Compound 9, (E)-Isopropyl 3-(3,4,5-Trimethoxyphenyl)acrylate]	81.43 ± 0.55 µg/mL (≈ 291 µM)	
203 to 205 °C	COc1cc(/C=C/C(=O)NCc2ccc(C)cc2)cc(OC)c1OC [Compound 16, (E)-N-(4-Methylbenzyl)-3-(3,4,5-trimethoxyphenyl)acrylamide]	22.7 ± 0.34 µg/mL (≈ 66.6 µM)	
74 to 75 °C	CCCCOC(=O)/C=C/c1cc(OC)c(OC)c(OC)c1 [Compound 5, (E)-Butyl-3-(3,4,5-trimethoxyphenyl)acrylate]	57.9 ± 0.71 µg/mL (≈ 197 µM)	
	CCCOC(=O)/C=C/c1cc(OC)c(OC)c(OC)c1 [Compound 4, (E)-Propyl-3-(3,4,5-trimethoxyphenyl)acrylate]	78.39 ± 0.69 µg/mL (≈ 280 µM)	
	COc1cc(/C=C/C(=O)OCCc2ccccc2)cc(OC)c1OC [Compound 12, (E)-Phenethyl 3-(3,4,5-trimethoxyphenyl)acrylate]	24.8 ± 0.37 µg/mL (≈ 72.4 µM)	
60 to 62 °C	COCCOC(=O)/C=C/c1cc(OC)c(OC)c(OC)c1 [Compound 8, (E)-2-Methoxyethyl-3-(3,4,5-trimethoxyphenyl)acrylate]	50.1 ± 0.62 µg/mL (≈ 169 µM)	
225 to 226 °C	CCCCNC(=O)/C=C/c1cc(OC)c(OC)c(OC)c1 [Compound 14, (E)-N-Butyl-3-(3,4,5-trimethoxyphenyl)acrylamide]	13.2 ± 0.32 µg/mL (≈ 45 µM)	
105 to 106 °C	CCCCCOC(=O)/C=C/c1cc(OC)c(OC)c(OC)c1 [Compound 6, (E)-Pentyl 3-(3,4,5-trimethoxyphenyl)acrylate]	31.7 ± 0.48 µg/mL (≈ 103 µM)	
	COc1cc(/C=C/C(=O)OCCc2ccc(C)cc2)cc(OC)c1OC [Compound 13, (E)-4-Methylphenethyl 3-(3,4,5-Trimethoxyphenyl)acrylate]	30.3 ± 0.35 µg/mL (≈ 85.1 µM)	
	piplaroxide		cytotoxic activity [2]: moderate activity; cytotoxic activity [3]: moderate activity; cytotoxic activity [4]: moderate activity
215 to 218 °C	COc1cc(/C=C/C(=O)NCc2ccc(Cl)cc2)cc(OC)c1OC [Compound 18, (E)-N-(4-Chlorobenzyl)-3-(3,4,5-trimethoxyphenyl)acrylamide]	43.4 ± 0.48 µg/mL (≈ 120 µM)	
145 to 146 °C	COc1cc(/C=C/C(=O)Oc2cc(C(C)C)ccc2C)cc(OC)c1OC [Compound 11, (E)-Carvacryl-3-(3,4,5-trimethoxyphenyl)acrylate]	26.7 ± 0.47 µg/mL (≈ 72.1 µM)	
	CCOC(=O)/C=C/c1cc(OC)c(OC)c(OC)c1 [Compound 3, (E)-Ethyl-3-(3,4,5-trimethoxyphenyl)acrylate]	100 ± 1.12 µg/mL (≈ 376 µM)	
197 to 198 °C	CCN(CC)C(=O)/C=C/c1cc(OC)c(OC)c(OC)c1 [Compound 19, (E)-N,N-Diethyl-3-(3,4,5-trimethoxyphenyl)acrylamide]	36.1 ± 0.44 µg/mL (≈ 123 µM)	
135 to 136 °C	COC(=O)/C=C/c1cc(OC)c(OC)c(OC)c1 [Compound 2, (E)-Methyl-3-(3,4,5-trimethoxyphenyl)acrylate]	85.13 ± 0.78 µg/mL (≈ 337 µM)	
225 to 226 °C	COc1ccc(CNC(=O)/C=C/c2cc(OC)c(OC)c(OC)c2)cc1 [Compound 17, (E)-N-(4-Methoxybenzyl)-3-(3,4,5-trimethoxyphenyl)acrylamide]	22.7 ± 0.39 µg/mL (≈ 63.4 µM)	
	CC(=O)O[C@H]1C(=O)[C@@]2(C)[C@H]([C@H](OC(=O)c3ccccc3)[C@]3(O)C[C@H](OC(=O)[C@H](O)[C@@H](NC(=O)c4ccccc4)c4ccccc4)C(C)=C1C3(C)C)[C@]1(OC(C)=O)CO[C@@H]1C[C@@H]2O [paclitaxel, reference compound]	2.12 µg/mL (≈ 2.48 µM)	
37 to 38 °C	CCCCCCCCCCOC(=O)/C=C/c1cc(OC)c(OC)c(OC)c1 [Compound 7, (E)-Decyl-3-(3,4,5-trimethoxyphenyl)acrylate]	34.9 ± 0.54 µg/mL (≈ 92.3 µM)	
	COc1cc(/C=C/C(=O)OC(c2ccccc2)c2ccccc2)cc(OC)c1OC [Compound 10, (E)-Benzhydryl 3-(3,4,5-trimethoxyphenyl)acrylate]	2.58 ± 0.35 µg/mL (≈ 6.38 µM)	cell viability / cellular proliferation rates (U87MG cells [1]; 0 to 50 μg/mL, 48 h, MTT and LDH analysis, compared to untreated cells): marked concentration-dependent inhibitory effect; apoptosis (nuclear morphology, Hoechst 33,258 staining) (U87MG cells [5]): enhanced chromatin condensation and nuclear fragmentation were detected; total antioxidant capacity (TAC) levels (U87MG cells [6]): significant increase of TAC levels; total oxidant status (TOS) levels (U87MG cells [7]): did not change the TOS levels; gene expression of BRAF, DVL1, EGFR, FOS, KRAS, NF-ĸB1A, RAF1, PIK3CA and PIK3R1 (U87MG cells [8]; <0.5 fold change): slight and insignificant alterations; AKT1 gene expression (U87MG cells [8]; [12]): down-regulated; AKT2 gene expression (U87MG cells [8]; [12]): down-regulated; NF-ĸB1 gene expression (U87MG cells [8]; vs untreated): up-regulated; NF-ĸB2 gene expression (U87MG cells [8]; vs untreated): up-regulated; PTEN gene expression (U87MG cells [8]; vs untreated): up-regulated; TP53 gene expression (U87MG cells [8]; vs untreated): up-regulated; cytotoxicity on blood cells, cell proliferation (MTT assay) [9]: did not lead to any significant (p > 0.05) changes in cell proliferation; cytotoxicity on blood cells, cell proliferation (LDH assay) [10]: did not lead to any significant (p > 0.05) changes in cell proliferation; genotoxicity, frequencies of SCEs [11]: not significant differences in the frequencies of SCEs
